Experimental data: patent publication US20100087459A1, “FORMS OF LAPATINIB COMPOUNDS AND PROCESSES FOR THE PREPARATION THEREOF” (priority 2008, published 2010)

Experiment: stability of crystalline Form M1 in commonly used solvents and at high temperature
Format: physicochemical
Details: solvents used for production and especially for formulation of the pharmaceutical product

- stability in commonly used solvents: high stability
Substance: Lapatinib monotosylate [Form M1]
